How the values were obtained:
[1] = biological target: human serum albumin (HSA) (Homo sapiens, UniProt P02768); assay: Binding site study with HSA, replacement of markers DanG and DanF (fluorescence); design: purchased Sigma-Aldrich Chemie GmbH; conditions: for percentage of the replacement of DanG: drug site 1 marker; for percentage of the replacement of DanF: drug site 2 marker
Description: HSA, the most important transport protein in our body, has two main binding sites with high affinity to drug binding: drug site 1 in subdomain IIA and drug site 2 in subdomain IIIA [71, 72, 73]. To determine which site the test compounds bind to, the analysis with markers having an affinity for one of the binding sites can be used. Dansylated amino acids turn out to be good for this type of research. In our study, we used dansyl-L-glycine (DanG) and dansyl-L-phenylalanine (DanF) as drug site 1 and drug site 2 markers, respectively. DanG and DanF bound with HSA show the phenomenon of fluorescence at the excitation wave equal to 350 nm. Under these conditions, the fluorescence spectrum is recorded with a band maximum at approximately 510 nm for DanG and 505 nm for DanF, respectively. We conducted a study in which we introduced successive portions of the analyzed compounds to a solution containing equimolar amounts of HSA and each marker. We increased the molar ratio of the reactants from 1:1:0 to 1:1:10. The intensity of fluorescence decreases during the addition of successive portions of the analyzed compounds.
Based on the obtained results, it is possible to calculate the percentage of replacement of DanG or DanF in the complex with albumin by the tested compounds and thus compare the effectiveness of this reaction for all analyzed molecules. (6) percentage of replacement=F0−F/F0·100%
Binding site studies were conducted using fluorescence measurements. Spectra were recorded on Cary Eclipse 500 spectrophotometer (Agilent, Santa Clara, CA, USA) at room temperature with a 10 mm path length. HSA and AAG solutions were prepared in phosphate buffer, giving concentrations equal to 1 × 10^−6 M. The concentrations of dansylated-L-glycine (DanG), dansylated-L-phenylalanine (DanF), and quinaldine red (QR) were 1 × 10^−3 M. The densylated amino acids and QR solutions were prepared in ethanol. For the HSA-dansylated amino acids studies, the excitation wavelength was equal to 350 nm, while for the AAG-QR system, it was 500 nm, respectively. Then, 3 mL of protein was mixed with 3 µL of marker solution, giving a molar ratio of 1 to 1. Next, successive portions of the analyzed compounds were added to the mixtures prepared in this way, obtaining the appropriate protein-to-compound molar ratios, amounting to 1:0, 1:0.5, 1:1, 1:2, 1:3, 1:4, 1:5, and 1:10 for the HSA-densylated amino acids systems, and 1:0, 1:0.5, 1:1, 1:2, 1:3, 1:4, 1:6, 1:8, and 1:10 for the AAG-QR systems.

COX-1 = biological target: T1, COX-1 (Ovis aries, UniProt P05979); assay: COX-1 inhibition, Cayman's COX Colorimetric Inhibitor Screening Assay Kit
T1 sequence (P05979 25-600): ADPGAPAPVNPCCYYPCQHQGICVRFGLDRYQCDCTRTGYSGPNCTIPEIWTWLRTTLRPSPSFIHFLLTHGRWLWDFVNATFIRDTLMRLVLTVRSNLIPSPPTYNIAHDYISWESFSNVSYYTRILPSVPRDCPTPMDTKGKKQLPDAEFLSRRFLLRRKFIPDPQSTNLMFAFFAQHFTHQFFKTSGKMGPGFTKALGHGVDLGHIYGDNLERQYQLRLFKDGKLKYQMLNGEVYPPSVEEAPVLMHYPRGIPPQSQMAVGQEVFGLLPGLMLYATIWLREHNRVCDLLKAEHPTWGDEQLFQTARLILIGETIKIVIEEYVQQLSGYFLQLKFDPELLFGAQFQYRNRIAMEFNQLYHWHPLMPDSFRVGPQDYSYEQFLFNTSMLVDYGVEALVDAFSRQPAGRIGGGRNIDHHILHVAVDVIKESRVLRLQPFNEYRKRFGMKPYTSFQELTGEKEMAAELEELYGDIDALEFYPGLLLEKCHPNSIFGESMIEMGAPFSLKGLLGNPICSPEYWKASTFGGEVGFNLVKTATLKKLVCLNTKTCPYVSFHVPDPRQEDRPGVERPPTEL

[2] = HSA:marker:compound molar ratio 1:1:0.5
[3] = HSA:marker:compound molar ratio 1:1:1
[4] = HSA:marker:compound molar ratio 1:1:2
[5] = HSA:marker:compound molar ratio 1:1:3
[6] = HSA:marker:compound molar ratio 1:1:4
[7] = HSA:marker:compound molar ratio 1:1:5
[8] = HSA:marker:compound molar ratio 1:1:10

human serum albumin (HSA), sequence (P02768 25-609): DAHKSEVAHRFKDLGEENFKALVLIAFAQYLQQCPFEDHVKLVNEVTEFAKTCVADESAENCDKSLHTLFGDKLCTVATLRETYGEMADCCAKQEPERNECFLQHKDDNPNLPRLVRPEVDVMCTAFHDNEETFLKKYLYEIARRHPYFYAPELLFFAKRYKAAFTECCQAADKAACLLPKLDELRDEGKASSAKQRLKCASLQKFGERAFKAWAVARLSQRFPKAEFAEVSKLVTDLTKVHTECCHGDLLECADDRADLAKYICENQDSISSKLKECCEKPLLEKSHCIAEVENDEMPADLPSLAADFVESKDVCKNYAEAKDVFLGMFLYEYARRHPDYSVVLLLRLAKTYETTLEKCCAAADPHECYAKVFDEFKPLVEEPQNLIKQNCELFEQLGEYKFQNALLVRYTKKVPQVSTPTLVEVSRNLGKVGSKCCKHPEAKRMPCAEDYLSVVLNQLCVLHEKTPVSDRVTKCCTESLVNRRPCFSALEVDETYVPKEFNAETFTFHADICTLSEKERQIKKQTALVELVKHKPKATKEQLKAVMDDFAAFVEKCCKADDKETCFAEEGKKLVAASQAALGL

Row | Structure (SMILES) | percentage of the replacement of DanG [1, 2] [%] | percentage of the replacement of DanG [1, 3] [%] | percentage of the replacement of DanG [1, 4] [%] | percentage of the replacement of DanG [1, 5] [%] | percentage of the replacement of DanG [1, 6] [%] | percentage of the replacement of DanG [1, 7] [%] | percentage of the replacement of DanG [1, 8] [%] | percentage of the replacement of DanF [1, 2] [%] | percentage of the replacement of DanF [1, 3] [%] | percentage of the replacement of DanF [1, 4] [%] | percentage of the replacement of DanF [1, 5] [%] | percentage of the replacement of DanF [1, 6] [%] | percentage of the replacement of DanF [1, 7] [%] | percentage of the replacement of DanF [1, 8] [%] | IC50 (COX-1) [µM]
1 | CCCCn1c(C)c2c(OCC(=O)N/N=C/c3ccccc3)nn(C)c(=O)c2c1C [Compound 5a, N-[(Z/E)-benzylideneamino]-2-(6-butyl-3,5,7-trimethyl-4-oxo-pyrrolo[3,4-d]pyridazin-1-yl)oxy-acetamide] | 0.7 | 0.7 | 3.7 | 5.2 | 6.7 | 8.5 | 15.7 | 2.3 | 2.7 | 5.9 | 9.0 | 11.7 | 14.9 | 28.8 | 81.9 ± 2.1
2 | Cc1c2c(OCC(=O)N/N=C/c3ccccc3)nn(C)c(=O)c2c(C)n1-c1ccccc1 [Compound 5b, N-[(Z/E)-benzylideneamino]-2-(3,5,7-trimethyl-4-oxo-6-phenyl-pyrrolo[3,4-d]pyridazin-1-yl)oxy-acetamide] | 0 | 0.7 | 5.6 | 7.7 | 9.8 | 11.2 | 14.0 | 5.2 | 9.1 | 15.7 | 20.4 | 23.5 | 27.4 | 32.2 | 90.1 ± 1.8
3 | Cc1c2c(OCC(=O)N/N=C/c3ccccc3)nn(C)c(=O)c2c(C)n1-c1cccc(Cl)c1 [Compound 5c, N-[(Z/E)-benzylideneamino]-2-[6-(3-chlorophenyl)-3,5,7-trimethyl-4-oxo-pyrrolo[3,4-d]pyridazin-1-yl]oxyacetamide] | 2.9 | 2.9 | 4.3 | 5.0 | 5.7 | 6.4 | 11.4 | 6.2 | 9.5 | 13.8 | 18.1 | 19.0 | 21.0 | 23.3 | 98.9 ± 1.6

Reference: paper PMC10383271
